Measurements from patent US20070232532A1, “Use of cyclosporin alkene analogues for preventing or treating viral-induced disorders” (priority 2006, published 2007).
Converted amounts (≈) assume the structure as drawn.

Experiments:
[1] = system: concanavalin A-stimulated splenocytes; test: Concanavalin A-stimulated splenocyte assay; assay type: cell-based, BALB/c mice; settings: for IC50: immunosuppressive activity, ConA-stimulated murine splenocytes, [3H]thymidine incorporation, 7 point curves
Protocol: Concanavalin A-Stimulated Splenocyte Assay
Male BALB/c mice, at 5 to 7 weeks of age, were sacrificed by CO2 inhalation. Spleens were removed and dissociated by pushing through a nylon cell strainer. The splenocytes were washed in RPMI 1640/5% fetal calf serum (FCS) and pelleted at 400×g. Red blood cells were then lysed by resuspending the cell pellet in ACK lysis buffer (150 mM NH4Cl, 1 mM KHCO3, 0.1 mM EDTA, 3 mL per spleen) for 10 min at room temperature. After pelleting at 400×g, the cells were washed by resuspending in RPMI 1640/5% FCS and repelleting. The cell pellet was resuspended in RPMI 1640/5% FCS and again passed through a cell strainer to remove cell aggregates. The cells were then counted and adjusted to 2×10^6 cells/ml in RPMI 1640/10% FCS/50 μM 2-mercaptoethanol. Cell viability was assessed by Trypan blue staining. […] The cells were cultured in a 37° C. CO2 incubator for 2 days and then pulsed with 1 μCi of [^3H]thymidine for 6 hours. Cells were harvested onto filtermats with a TomTec 96 well plate harvester and lysed with H2O. The filtermat and scintillation fluid were sealed in a plastic sleeve. [^3H]thymidine incorporation was measured with a Wallac Trilux plate counter. Initial screens were done at a fixed value of 100 ng/ml test compound. IC50s were calculated from 7 point concentration-response curves using GraphPad software.

HIV-1 = settings: literature report; cited from earlier work
calcineurin = settings: cited from earlier work
[2] = system: immunosuppressive activity; settings: Mlynar et al. 1997; cited from earlier work
[3] = system: hepatitis C virus replication; settings: Paeshuyse et al. 2005; cited from earlier work
cyclophilin A = cyclophilin A (Homo sapiens, UniProt P62937); settings: cited from earlier work
Sequence of cyclophilin A (P62937 whole entry): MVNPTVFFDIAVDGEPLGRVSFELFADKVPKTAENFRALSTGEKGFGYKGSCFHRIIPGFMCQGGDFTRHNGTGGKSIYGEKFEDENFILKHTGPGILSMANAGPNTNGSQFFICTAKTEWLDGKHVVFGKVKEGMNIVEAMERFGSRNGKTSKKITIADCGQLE

Compound | IC50 [1] | also measured
cyclosporin vinyl iodide [Example 6] | 11 ng/mL | 
C/C=C/C[C@@H](C)[C@@H](O)[C@H]1C(=O)N[C@@H](CC)C(=O)N(C)CC(=O)N(C)[C@@H]([C@@H](C)CC)C(=O)N[C@@H](C(C)C)C(=O)N(C)[C@@H](CC(C)C)C(=O)N[C@@H](C)C(=O)N[C@H](C)C(=O)N(C)[C@@H](CC(C)C)C(=O)N(C)[C@@H](CC(C)C)C(=O)N(C)[C@@H](C(C)C)C(=O)N1C [SDZ NIM 811] |  | anti-HIV-1 activity (HIV-1): potent and selective anti-HIV-1 activity; inhibition of calcineurin (calcineurin): does not inhibit calcineurin; immunosuppressive activity [2]: completely devoid of immunosuppressive activity
trans-cyclosporin diene-d2 [Example 69] | 4 ng/mL | 
CC[C@@H]1NC(=O)[C@H]([C@H](O)[C@H](C)C/C=C/Br)N(C)C(=O)[C@H](C(C)C)N(C)C(=O)[C@H](CC(C)C)N(C)C(=O)[C@H](CC(C)C)N(C)C(=O)[C@@H](C)NC(=O)[C@H](C)NC(=O)[C@H](CC(C)C)N(C)C(=O)[C@H](C(C)C)NC(=O)[C@H](CC(C)C)N(C)C(=O)CN(C)C1=O (relative stereo) [Example 19, trans-cyclosporin vinyl bromide] | 9 ng/mL | 
CC[C@@H]1NC(=O)[C@H]([C@H](O)[C@H](C)CC=CCF)N(C)C(=O)[C@H](C(C)C)N(C)C(=O)[C@H](CC(C)C)N(C)C(=O)[C@H](CC(C)C)N(C)C(=O)[C@@H](C)NC(=O)[C@H](C)NC(=O)[C@H](CC(C)C)N(C)C(=O)[C@H](C(C)C)NC(=O)[C@H](CC(C)C)N(C)C(=O)CN(C)C1=O [Example 34, cyclosporin allylic fluoride] | 12 ng/mL (≈ 9.83 nM) | 
C=C/C=C/C[C@@H](C)[C@@H](O)[C@H]1C(=O)N[C@@H](CC)C(=O)N(C)[C@H](CO)C(=O)N(C)[C@@H](CC(C)C)C(=O)N[C@@H](C(C)C)C(=O)N(C)[C@@H](CC(C)C)C(=O)N[C@@H](C)C(=O)N[C@H](C)C(=O)N(C)[C@@H](CC(C)C)C(=O)N(C)[C@@H](CC(C)C)C(=O)N(C)[C@@H](C(C)C)C(=O)N1C (relative stereo) [Example 67, trans-cyclosporin diene] | 7 ng/mL (≈ 5.62 nM) | 
C/C=C/C[C@@H](C)[C@@H](O)[C@H]1C(=O)N[C@@H](CC)C(=O)N(C)[C@H](C)C(=O)N(CC)[C@@H](C(C)C)C(=O)N[C@@H](C(C)C)C(=O)N(C)[C@@H](CC(C)C)C(=O)N[C@@H](C)C(=O)N[C@H](C)C(=O)N(C)[C@@H](CC(C)C)C(=O)N(C)[C@@H](CC(C)C)C(=O)N(C)[C@@H](C(C)C)C(=O)N1C [DEBIO-025] |  | inhibition of hepatitis C virus replication [3]: potent and selective inhibition of hepatitis C virus replication; binding affinity for cyclophilin A (cyclophilin A): potent binding affinity
trans-deuterated cyclosporin vinyl iodide [Example 9] | 7 ng/mL | potency in immunosuppression compared to cyclosporin A ([1]; FIG. 1, ConA-stimulated splenocyte assay): enhanced potency
CC[C@@H]1NC(=O)[C@H]([C@H](O)[C@H](C)CC=CC(F)(F)F)N(C)C(=O)[C@H](C(C)C)N(C)C(=O)[C@H](CC(C)C)N(C)C(=O)[C@H](CC(C)C)N(C)C(=O)[C@@H](C)NC(=O)[C@H](C)NC(=O)[C@H](CC(C)C)N(C)C(=O)[C@H](C(C)C)NC(=O)[C@H](CC(C)C)N(C)C(=O)CN(C)C1=O [Example 31, cyclosporin fluoride] | 38 ng/mL (≈ 30.2 nM) | 
